According to US20200352889A1, “CYSTATHIONINE COMPOSITIONS AND METHODS OF TREATMENT FOR HEALTH CONDITIONS” (THE REGENTS OF THE UNIVERSITY OF COLORADO, A BODY CORPORATE, priority 2011, published 2020):
Residues, ends and D or L forms follow the SMILES beside them. *: point of attachment. Cbz = O=C(OCc1ccccc1)*; CH2F = FC*

Columns and labels:
A293AD kidney cells = assay: Thapsagargin-induced cell death, LDH release, A293AD kidney cells; format: cell-based, human
Experimental: It was previously shown that cystathionine can protect against ER stress induced cell death induced by the glycosylation inhibitor tunicamycin. In order to investigate if this protective effect was limited to tunicamycin, it was investigated whether cystathionine (1 mM) could protect A293AD kidney cells against ER stress induced cell death mediated by the calcium metabolism inhibitor compound thapsagargin (1 uM). Cell death was monitored by measuring LDH release into culture media. In order to investigate if cystathionine was simply blocking apoptosis, the effect of thapsagargin in the presence of the known apoptosis inhibitor Z-VAD-FMK was investigated. […] While it is not necessary to understand the mechanism of action, it is believed that 1.

HepG2 cells [1] = assay: Tunicamycin or thapsagargin induced cell death in HepG2 cells, comparison with Z-VAD-FMK; format: cell-based, human; details: p>0.05 for Z-VAD-FMK
293AD cells = assay: Tunicamycin-induced cell death, LDH release and phase-contrast, 293AD cells; format: cell-based, human
Experimental: (§1) Cells were seeded in triplicate at ˜75% confluence and pre-treated with either PPG) (5 mM), Cystathionine (1 mM) or with just complete media (DMEM, 10% FBS) as a control. After 24 hr pre-treatment, cells looked normal, with minimal floating cells. Fresh media with 1% FBS was then added to each well, the cells were further treated with Tm (either 5 or 10 ug)/ml. After 18 hr. treatment with Tunicamycin, cells were photographed under phase-contrast with a Zeiss Axiovert 25 microscope for evidence of dead floating cells. Cells from the group treated solely with tunicamycin became strikingly hyper-refringent, detached from the substratum and floated in the media. […] To further evaluate a role for cystathionine in resisting the induction of cell death by tunicamycin, cell lysis was quantified by assaying lactate dehydrogenase (LDH) release. The enzyme activity was determined spectrophotometrically and the amount of enzyme leak was expressed as a percentage of the LDH activity observed in untreated control cells.
HepG2, 293AD and a23 cells were seeded in triplicate at ˜75% confluence and were pre-treated with either propargylglycine (PPG) (5 mM) or cystathionine (5 mM) in complete media (DMEM, 10% FBS). After 24 hours, fresh media with 1% FBS was added to each well. Cells were then further treated with tunicamycin (either 5 or 10 ug/ml) for 18 hr treatment. Cells were subsequently photographed under phase-contrast with a Zeiss Axiovert 25 microscope for evidence of dead floating cells. To quantify cell death the media supernatant was collected for LDH release assay using a kit from Roche Applied Science (Cat.No.11 644 793 001) according to the manufacturer's standard protocol where cytotoxicity (%)=((experimental value-low control/(high control-low control))×100.
as §1, with “24 hr.” for “24 hr”

HepG2 cells [2] = assay: Tunicamycin-induced cell death, LDH release, HepG2 cells; format: cell-based, human; details: data not shown
Experimental: as §1, with “control cells. […]” for “control cells.”
(§2) Cells were seeded in triplicate at ˜75% confluence and pre-treated with either PPG) (5 mM), Cystathionine (1 mM) or with just complete media (DMEM, 10% FBS) as a control. […] To further evaluate a role for cystathionine in resisting the induction of cell death by tunicamycin, cell lysis was quantified by assaying lactate dehydrogenase (LDH) release. […]

a23 cells = assay: Tunicamycin-induced cell death, LDH release, transsulfuration negative a23 cells; format: cell-based, Chinese hamster; details: CBS and CGL negative, p<0.0001
From the text: However, examination of a direct effect of exogenously added cystathionine is not currently possible in a whole animal model because of complications with the compounds solubility and rapid kinetics of its excretion. In order to investigate the direct effects of cystathionine against ER stress-induced cell death, the cytotoxicity of tunicamycin in the human embryonic kidney cell line 293AD and the human hepatoma cell line HepG2 in the presence and absence of both PPG and exogenously added cystathionine was examined. Preliminary experiments confirmed that both of these cell lines express both CBS and CGL (data not shown). In order to investigate the possible protective effects of cystathionine in the absence of transsulfuration, these experiments were repeated with the CBS and CGL negative Chinese hamster fibroblast line a23 (6).
as §2, with “release. The enzyme activity was determined spectrophotometrically and the amount of enzyme leak was expressed as a percentage of the LDH activity observed in untreated control cells.” for “release.”

Grp78, Grp94, GADD153 = assay: Northern and Western blotting of UPR induction in 293AD cells; format: cell-based, human
Experimental: To further assess the effect of cystathionine upon induction of the UPR and GADD153 by ER stress Northern and Western blotting experiments were performed.
Immunoblot analysis of total cell lysates was performed as described previously (4,14). Briefly, following incubation with the appropriate primary and horseradish peroxidase-conjugated secondary antibodies (Affinity Biologicals, Ancaster, ON, Canada) membranes were developed using the Renaissance® Western Blot Chemiluminescence Reagent Kit, (Perkin Elmer, Woodbridge, ON, Canada). Proteins were transferred on a nitrocellulose membrane, and probed with anti-KDEL monoclonal antibody, which recognizes Hsp70, GRP78 and GRP94 that was purchased from Stressgen Biotechnologies (SPA-827) or anti GADD153 (Santa Cruz Biotech #SC-7351). Anti-β-Actin monoclonal antibody (Sigma) was used as a loading control.
Total RNA was isolated from 293AD cells using the RNeasy® total RNA kit (Qiagen, Santa Clarita, Calif.) and resuspended in diethylpyrocarbonate (DEPC)-treated water. Quantification and purity of the RNA was assessed by A260/A280 absorption, and RNA samples with ratios greater than 1.6 were stored at […] for further analysis. Total RNA (10 μg/lane) was fractionated on 2.2 mol/L formaldehyde/1.2% agarose gels and transferred overnight onto Zeta-Probe® GT nylon membranes (Bio-Rad, Toronto, Canada) in 10×SSC. The RNA was cross-linked to the membrane using a UV crosslinker (PDI Bioscience, Toronto, Canada) before hybridization. Specific probes were generated by labeling cDNA fragments with [−32P]dCTP (NEN) using a random primed DNA labeling kit (Boehringer Mannheim, Laval, Canada). The cDNA probe for GADD153 (no. AA627477) was obtained from Genome Systems (St Louis, Mo.). The cDNA probe used for GRP78 is a full length cDNA clone that has been described previously (4). After overnight hybridization at 43° C., the membranes were washed as described by the manufacturer, exposed to x-ray film, and subjected to autoradiography.

[3] = Solubility of cystathionine in water; format: physicochemical
[4] = Urinary excretion of cystathionine in mice; format: in vivo, mouse

Row | Structure (SMILES) | reduction of total cell death (A293AD kidney cells; thapsagargin 1 uM) | protection against cell death induced by thapsagargin (HepG2 cells [1]) | protection against cell death induced by tunicamycin (HepG2 cells [1]) | reduction in cell death (LDH release) (293AD cells; 293AD cells, tunicamycin 10 μg/ml 18 hr, 24 hr pre-treatment PPG 5 mM or cystathionine 1 mM, p<0.0001) [fold] | floating dead cells (phase-contrast) (293AD cells; tunicamycin 18 hr after PPG or cystathionine pre-treatment) | protection against tunicamycin-induced cell death compared with 293AD cells (HepG2 cells [2]) | reduction in tunicamycin induced cell death (LDH release) (a23 cells) [fold] | expression of Grp78, Grp94 and GADD15 in control cells (Grp78, Grp94, GADD153; PPG 5 mM or cystathionine 5 mM, no tunicamycin) | scale of induction of Grp78, Grp94 and GADD153 in the presence of tunicamycin (Grp78, Grp94, GADD153; tunicamycin 5 and 10 μg/ml) | cell death in cystathionine control (A293AD kidney cells; cystathionine 1 mM alone) | protection against thapsagargin induced cell death (LDH release) (A293AD kidney cells; cystathionine 1 mM, thapsagargin 1 uM) | solubility in water [3] | excretion in urine [4]
1 | COC(=O)C[C@H](NC(=O)[C@H](C)NC(=O)[C@@H](NC(=O)OCc1ccccc1)C(C)C)C(=O)CF [Z-VAD-FMK] (Cbz-Val-Ala-Asp(OMe)-CH2F) | approximately 20% | only modest protection | only modest protection |  |  |  |  |  |  |  |  |  | 
2 | NC(CSCC[C@@H](N)C(=O)O)C(=O)O (stereo partly drawn) [cystathionine, R—S-(2-Amino-2-carboxyethyl)-L-homocysteine] |  | much greater protective effects | much greater protective effects | 27 | No floating dead cells were observed | Essentially identical results | 16 | Neither PPG nor exogenously added cystathionine induced expression | Nor did either of these treatments significantly alter the scale of induction | No cell death was observed | highly significant protective effects | relatively low solubility in water | rapidly excreted in the urine
